# Assay results as given in publication PMC6018554, “2-[2-(4-(trifluoromethyl)phenylamino)thiazol-4-yl]acetic acid (Activator-3) is a potent activator of AMPK” (Scientific Reports, 2018).
# Experiments:
# PFK1 = test: PFK activity assay kit; assay type: biochemical; settings: AMP at 100 µM and 1 mM
# [1] = target: T1, recombinant human AMPK α1β1γ1 (Homo sapiens, UniProt P54619); test: In vitro AMP kinase assay (pACC ELISA), α1β1γ1; assay type: biochemical; settings: AMP 1 µM to 300 µM with Activator-3 30 nM
# T1 construct: purchased SignalChem P47-10H-05/P48-10H-05 (for all four isozymes together); host or cells: baculovirus expression
# T1 sequence (P54619 whole entry): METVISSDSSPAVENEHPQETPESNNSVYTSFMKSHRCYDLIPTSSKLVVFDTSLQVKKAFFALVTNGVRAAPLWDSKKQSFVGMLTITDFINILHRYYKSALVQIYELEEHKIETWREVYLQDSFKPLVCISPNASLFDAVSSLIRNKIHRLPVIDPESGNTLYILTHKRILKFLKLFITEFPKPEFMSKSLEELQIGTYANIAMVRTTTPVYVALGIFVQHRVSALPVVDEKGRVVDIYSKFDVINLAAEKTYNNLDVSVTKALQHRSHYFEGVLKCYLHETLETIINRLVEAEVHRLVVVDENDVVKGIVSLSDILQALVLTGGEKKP
# T1 sequence (Q13131 whole entry partner): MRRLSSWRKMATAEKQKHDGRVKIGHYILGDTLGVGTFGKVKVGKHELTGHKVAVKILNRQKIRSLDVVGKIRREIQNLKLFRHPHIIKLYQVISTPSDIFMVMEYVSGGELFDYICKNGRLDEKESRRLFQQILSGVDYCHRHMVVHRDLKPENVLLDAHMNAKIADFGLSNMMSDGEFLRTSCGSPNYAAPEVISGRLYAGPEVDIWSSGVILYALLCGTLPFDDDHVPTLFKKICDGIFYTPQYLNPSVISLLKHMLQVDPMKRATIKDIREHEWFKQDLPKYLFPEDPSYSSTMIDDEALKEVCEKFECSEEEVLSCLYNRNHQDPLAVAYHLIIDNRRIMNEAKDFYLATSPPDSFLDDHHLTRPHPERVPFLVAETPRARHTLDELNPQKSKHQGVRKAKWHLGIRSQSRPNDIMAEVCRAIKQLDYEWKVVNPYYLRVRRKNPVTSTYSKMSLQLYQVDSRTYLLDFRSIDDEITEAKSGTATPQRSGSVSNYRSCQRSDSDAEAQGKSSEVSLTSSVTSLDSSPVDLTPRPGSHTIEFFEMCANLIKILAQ
# T1 sequence (Q9Y478 whole entry partner): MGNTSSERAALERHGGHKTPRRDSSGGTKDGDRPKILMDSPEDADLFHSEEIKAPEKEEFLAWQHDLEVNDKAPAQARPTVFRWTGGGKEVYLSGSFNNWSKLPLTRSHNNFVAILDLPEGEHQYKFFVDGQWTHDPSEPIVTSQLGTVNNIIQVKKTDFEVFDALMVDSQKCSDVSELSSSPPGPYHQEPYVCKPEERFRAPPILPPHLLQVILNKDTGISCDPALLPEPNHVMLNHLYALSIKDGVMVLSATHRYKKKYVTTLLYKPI
# From the text: Having observed the effect of Activator-3 on the activation of AMPK in cell based assays, we next examined whether Activator-3 could activate AMPK directly or not. […] The activity of recombinant human AMPK (α1β1γ1, α2β1γ1, α2β2γ2 and α2β2γ3) in the presence of vehicle was considered as 100%. The EC50 of Activator-3 for the activation of α1β1γ1, α2β1γ1 and α2β2γ2 isozymes were similar. However, the activity of Activator-3 against α2β2γ3 was marginally higher (Fig. 1C).
# (§1) A high binding Enzyme Immuno Assay (EIA) 96-well plate (Sigma: Cat# CLS3590) was coated with Acetyl CoA Carboxylase 2 (ACC: 175–271 amino acids) peptide, a direct substrate for AMPK, 100 ng per well (1:1000 ratio, Cat# 12–491, Upstate biotechnology) and incubated overnight at 25 °C. Reaction mixture was incubated at 30 °C for 2 h and reaction was stopped by washing the plate with 0.05% Tween 20 followed by incubation with pACC primary antibody and rabbit secondary antibody as described in cell based ELISA section. Assay buffer is composed of 10 mM DTT, 100 mM magnesium acetate, 50 μM ATP and 10 mM HEPES.
# [2] = target: T2, human recombinant α1β1γ1 AMPK γ1 mutants (R70G, R152G) (Homo sapiens, UniProt P54619, R70G); test: In vitro kinase assay with mutant AMPK pulled down from HEK-293T cells; assay type: biochemical; settings: 100 µM AMP; γ1 R70G
# T2 construct: SFB triple tag (Streptavidin, Flag and Biotin; SFB-pDEST); host or cells: HEK-293T, streptavidin-bead pull-down with biotin elution
# T2 sequence (P54619 whole entry R70G): as the sequence (P54619 whole entry) above, with R70G counted along it
# T2 sequence (Q13131 whole entry partner): as the sequence (Q13131 whole entry partner) above
# T2 sequence (Q9Y478 2-270 partner): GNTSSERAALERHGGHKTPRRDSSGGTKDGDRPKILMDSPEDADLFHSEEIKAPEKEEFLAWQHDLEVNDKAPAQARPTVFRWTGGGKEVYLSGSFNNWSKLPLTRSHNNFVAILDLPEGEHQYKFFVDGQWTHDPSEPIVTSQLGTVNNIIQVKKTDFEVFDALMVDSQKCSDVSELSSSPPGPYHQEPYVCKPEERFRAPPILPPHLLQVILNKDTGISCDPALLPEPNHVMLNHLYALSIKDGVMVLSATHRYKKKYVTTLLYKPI
# Experimental: as §1
# (§2) R70 and R152 residues in AMPK γ1 subunit (pDONR223-PRKAG1: purchased from addgene, cat# plasmid#23718) are mutated to glycine using overlapping extension PCR. Subsequently, the mutants were transferred into a triple tagged destination vector (Streptavidin, Flag and Biotin; SFB-pDEST) by using gateway cloning technology. The mutant DNA was transfected into HEK-293T cells using PEI following standard procedures. After 4 h of transfection, media was changed to DMEM containing 10% FBS. Cells were lysed in TENNS lysis buffer (20 mM Tris pH:8.0, 100 mM NaCl, 1 mM EDTA, 10 mM Na2H2P2O7, 10 mM NaF, 10 mM Na3VO4, 0.5% NP40) and subjected to pull down using streptavidin beads followed by biotin elution. To protect the protein from dephosphorylation, cells were treated with 500 μM AICAR prior to lysis. This purified protein was estimated by using nanodrop and taken for in vitro kinase assay to check whether Activator-3 is binding to the mutant AMPK or not, and the activity of the mutant protein was assessed by comparing with the wild type protein activity.
# [3] = system: human recombinant α1β1γ1 AMPK γ1 mutants (R70G, R152G); test: as above; assay type: biochemical; settings: 100 µM AMP; γ1 mutants
# Experimental: as §1, §2
# [4] = target: T3, recombinant human AMPK α2β2γ2 (Homo sapiens, UniProt Q9UGJ0); set-up: method as in PMID 28705990; settings: cited from earlier work
# T3 construct: purchased SignalChem; host or cells: baculovirus expression
# T3 sequence (Q9UGJ0 whole entry): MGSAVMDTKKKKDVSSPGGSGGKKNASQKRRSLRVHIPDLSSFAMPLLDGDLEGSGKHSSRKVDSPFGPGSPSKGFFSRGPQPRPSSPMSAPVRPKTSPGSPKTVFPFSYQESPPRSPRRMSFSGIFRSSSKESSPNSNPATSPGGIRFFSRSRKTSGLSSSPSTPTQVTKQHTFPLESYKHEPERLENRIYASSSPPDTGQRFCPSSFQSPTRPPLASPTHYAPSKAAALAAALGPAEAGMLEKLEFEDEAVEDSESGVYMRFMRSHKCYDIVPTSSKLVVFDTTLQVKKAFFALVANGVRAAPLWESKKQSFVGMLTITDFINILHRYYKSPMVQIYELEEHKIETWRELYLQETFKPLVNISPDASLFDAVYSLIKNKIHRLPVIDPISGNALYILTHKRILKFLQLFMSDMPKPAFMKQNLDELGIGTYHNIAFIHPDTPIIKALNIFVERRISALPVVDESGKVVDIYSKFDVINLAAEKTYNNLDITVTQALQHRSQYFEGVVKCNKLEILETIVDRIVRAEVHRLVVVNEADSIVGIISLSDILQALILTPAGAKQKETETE
# T3 sequence (P54646 whole entry partner): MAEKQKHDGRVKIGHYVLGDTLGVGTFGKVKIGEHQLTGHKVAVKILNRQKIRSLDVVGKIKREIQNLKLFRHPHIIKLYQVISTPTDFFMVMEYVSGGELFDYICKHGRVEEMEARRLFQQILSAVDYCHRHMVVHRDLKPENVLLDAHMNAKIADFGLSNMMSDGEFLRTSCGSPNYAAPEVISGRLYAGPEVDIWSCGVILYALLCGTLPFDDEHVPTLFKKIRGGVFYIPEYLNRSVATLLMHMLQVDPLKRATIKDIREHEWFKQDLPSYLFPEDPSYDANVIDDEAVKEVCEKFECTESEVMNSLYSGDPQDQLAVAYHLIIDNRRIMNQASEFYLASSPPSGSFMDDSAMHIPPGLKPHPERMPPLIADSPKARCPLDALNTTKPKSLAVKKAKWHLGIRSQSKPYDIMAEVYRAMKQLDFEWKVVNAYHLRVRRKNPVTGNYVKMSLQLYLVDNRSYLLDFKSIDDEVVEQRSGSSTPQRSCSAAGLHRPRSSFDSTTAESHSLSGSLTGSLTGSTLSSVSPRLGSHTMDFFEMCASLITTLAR
# T3 sequence (O43741 whole entry partner): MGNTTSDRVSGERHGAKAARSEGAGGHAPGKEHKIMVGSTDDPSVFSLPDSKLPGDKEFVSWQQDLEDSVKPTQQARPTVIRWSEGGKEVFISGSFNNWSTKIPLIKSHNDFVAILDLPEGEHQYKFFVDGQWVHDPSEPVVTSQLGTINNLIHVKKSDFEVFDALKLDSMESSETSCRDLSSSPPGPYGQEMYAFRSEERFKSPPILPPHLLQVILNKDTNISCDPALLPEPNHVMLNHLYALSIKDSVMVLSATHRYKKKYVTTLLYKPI
SMILES,effect on PFK1 activity (PFK1),α1β1γ1 activity compared to 30 nM Activator-3 alone [1],"activation of AMPK, effect of R70G mutation [2]",AMPK activity of mutant proteins vs wild type [3],Emax compared to basal activity [4]
"Nc1ncnc2c1ncn2C1OC(COP(=O)(O)O)C(O)C1O (centres unmarked) [AMP, reference compound]",activated,progressive enhancement,did not impact,significant reduction,–
O[C@@H]1CO[C@H]2[C@@H]1OC[C@H]2Oc1nc2nc(-c3ccc(-c4ccccc4)cc3)c(Cl)cc2[nH]1 [MK-8722],–,–,–,–,~ 250%
